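96-well plates; 48 h exposure; 5 concentrations. Endpoints by linear interpolation between flanking doses. Not reached: highest tested concentration assigned. TGI is the concentration that stops growth completely.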
Tests used:
Test in all cases: inhibition of tumour cell growth, NCI panel, 48 h
[1] = system: T-47D breast
[2] = system: BT-549 breast
[3] = system: PC-3 prostate
[4] = system: UACC-257 melanoma
[5] = system: M14 melanoma
[6] = system: CCRF-CEM leukemia
[7] = system: NCI-H23 lung
[8] = system: KM12 colon
[9] = system: RPMI-8226 leukemia
[10] = system: HT29 colon
[11] = system: MCF7 breast
[12] = system: OVCAR-4 ovarian
[13] = system: SNB-75 CNS
[14] = system: OVCAR-5 ovarian
[15] = system: SW-620 colon
[16] = system: SF-268 CNS
[17] = system: MDA-N
[18] = system: NCI-H460 lung
[19] = system: SF-539 CNS
[20] = system: HCT-116 colon
[21] = system: COLO 205 colon
[22] = system: MALME-3M melanoma
[23] = system: SK-MEL-2 melanoma
[24] = system: HCT-15 colon
[25] = system: SNB-19 CNS
[26] = system: CAKI-1 renal
[27] = system: 786-0 renal
[28] = system: HS 578T breast
[29] = system: A549 NSCLC
[30] = system: SK-OV-3 ovarian
[31] = system: HOP-62 NSCLC
[32] = system: OVCAR-3 ovarian
[33] = system: SK-MEL-28 melanoma
[34] = system: HCC-2998 colon
[35] = system: NCI-H226 lung
[36] = system: SN12C renal
[37] = system: UO-31 renal
[38] = system: NCI/ADR-RES ovarian
[39] = system: MOLT-4 leukemia
[40] = system: SF-295 CNS
[41] = system: MDA-MB-435
[42] = system: ACHN renal
[43] = system: K-562 leukemia
[44] = system: OVCAR-8 ovarian
[45] = system: EKVX NSCLC
[46] = system: RXF 393 renal
[47] = system: DU-145 prostate
[48] = system: SR leukemia
[49] = system: HOP-92 NSCLC
[50] = system: TK-10 renal
[51] = system: U251 CNS
[52] = system: UACC-62 melanoma
[53] = system: IGROV1 ovarian
[54] = system: SK-MEL-5 melanoma
[55] = system: HL-60(TB) leukemia
[56] = system: MDA-MB-231 breast
[57] = system: NCI-H522 lung
[58] = system: LOX IMVI melanoma

Q: For `Cc1ccc(N/C(=C(/C(Cl)=C(Cl)Cl)[N+](=O)[O-])n2nnc3ccccc32)cc1`, which TGI [1] is on record?
A: Its TGI is 52.5 µM.

Q: And the TGI [2]?
A: Its TGI is 37.6 µM.

Q: And the TGI [3]?
A: Its TGI is 33.8 µM.

Q: And the TGI [4]?
A: The TGI was 62.7 µM.

Q: What about the TGI [5] of the same compound?
A: Its TGI is 31.7 µM.

Q: And the TGI [6]?
A: Its TGI is 64.5 µM.

Q: And the TGI [7]?
A: The TGI was 43.8 µM.

Q: And the TGI [8]?
A: Its TGI is 47.7 µM.

Q: And the TGI [9]?
A: The TGI was 64.8 µM.

Q: And the TGI [10]?
A: Its TGI is 42 µM.

Q: What about the TGI [11] of the same compound?
A: The TGI was greater than 100 µM.

Q: And the TGI [12]?
A: Its TGI is 39.6 µM.

Q: What about the TGI [13] of the same compound?
A: The TGI was 35.4 µM.

Q: What about the TGI [14] of the same compound?
A: Its TGI is 41 µM.

Q: What about the TGI [15] of the same compound?
A: Its TGI is 43.5 µM.

Q: And the TGI [16]?
A: The TGI was 36.8 µM.

Q: And the TGI [17]?
A: Its TGI is 38.1 µM.

Q: And the TGI [18]?
A: The TGI was 34.4 µM.

Q: And the TGI [19]?
A: The TGI was 31.3 µM.

Q: What about the TGI [20] of the same compound?
A: The TGI was 75.5 µM.

Q: And the TGI [21]?
A: Its TGI is 28.4 µM.

Q: What about the TGI [22] of the same compound?
A: Its TGI is 29.9 µM.

Q: What about the TGI [23] of the same compound?
A: The TGI was 35.5 µM.

Q: What about the TGI [24] of the same compound?
A: Its TGI is 52.3 µM.

Q: And the TGI [25]?
A: Its TGI is 33.9 µM.

Q: And the TGI [26]?
A: Its TGI is 31.6 µM.

Q: And the TGI [27]?
A: Its TGI is 38.4 µM.

Q: What about the TGI [28] of the same compound?
A: The TGI was 47.1 µM.

Q: What about the TGI [29] of the same compound?
A: The TGI was 37.3 µM.

Q: What about the TGI [30] of the same compound?
A: Its TGI is 35.8 µM.

Q: What about the TGI [31] of the same compound?
A: Its TGI is 39.7 µM.

Q: And the TGI [32]?
A: The TGI was 34.3 µM.

Q: What about the TGI [33] of the same compound?
A: Its TGI is 33.8 µM.

Q: What about the TGI [34] of the same compound?
A: The TGI was 35.1 µM.

Q: What about the TGI [35] of the same compound?
A: The TGI was 35.3 µM.

Q: What about the TGI [36] of the same compound?
A: Its TGI is 43.7 µM.

Q: And the TGI [37]?
A: The TGI was 30.2 µM.

Q: What about the TGI [38] of the same compound?
A: Its TGI is 69.5 µM.

Q: What about the TGI [39] of the same compound?
A: Its TGI is greater than 100 µM.

Q: And the TGI [40]?
A: Its TGI is 36.7 µM.

Q: And the TGI [41]?
A: Its TGI is 40.2 µM.

Q: And the TGI [42]?
A: Its TGI is 44.9 µM.

Q: What about the TGI [43] of the same compound?
A: Its TGI is greater than 100 µM.

Q: What about the TGI [44] of the same compound?
A: The TGI was 38 µM.

Q: And the TGI [45]?
A: The TGI was 39.5 µM.

Q: `Cc1cccc(C)c1NC(=O)C(=O)C(c1ccccc1Cl)S(=O)(=O)Cc1ccccc1Cl` (configuration not stated) was tested. Which TGI [1] did it give?
A: The TGI was greater than 100 µM.

Q: And the TGI [2]?
A: The TGI was greater than 83.5 µM.

Q: And the TGI [46]?
A: The TGI was 80.2 µM.

Q: What about the TGI [3] of the same compound?
A: Its TGI is greater than 100 µM.

Q: What about the TGI [4] of the same compound?
A: Its TGI is greater than 100 µM.

Q: What about the TGI [5] of the same compound?
A: The TGI was greater than 100 µM.

Q: What about the TGI [6] of the same compound?
A: Its TGI is greater than 100 µM.

Q: What about the TGI [7] of the same compound?
A: The TGI was greater than 76.9 µM.

Q: What about the TGI [8] of the same compound?
A: The TGI was greater than 100 µM.

Q: And the TGI [9]?
A: Its TGI is greater than 100 µM.

Q: What about the TGI [10] of the same compound?
A: Its TGI is greater than 100 µM.

Q: What about the TGI [11] of the same compound?
A: Its TGI is greater than 100 µM.

Q: What about the TGI [47] of the same compound?
A: The TGI was greater than 100 µM.

Q: And the TGI [12]?
A: The TGI was greater than 100 µM.

Q: What about the TGI [48] of the same compound?
A: Its TGI is greater than 100 µM.

Q: And the TGI [13]?
A: Its TGI is greater than 44.1 µM.

Q: And the TGI [14]?
A: The TGI was greater than 100 µM.

Q: What about the TGI [15] of the same compound?
A: Its TGI is greater than 100 µM.

Q: What about the TGI [16] of the same compound?
A: The TGI was 66.6 µM.

Q: What about the TGI [49] of the same compound?
A: The TGI was 44 µM.

Q: What about the TGI [17] of the same compound?
A: Its TGI is greater than 100 µM.

Q: And the TGI [50]?
A: The TGI was greater than 100 µM.

Q: What about the TGI [18] of the same compound?
A: Its TGI is greater than 100 µM.

Q: What about the TGI [19] of the same compound?
A: The TGI was 39.2 µM.

Q: And the TGI [51]?
A: Its TGI is greater than 100 µM.

Q: And the TGI [52]?
A: The TGI was greater than 100 µM.

Q: And the TGI [20]?
A: Its TGI is greater than 100 µM.

Q: What about the TGI [21] of the same compound?
A: Its TGI is greater than 100 µM.

Q: And the TGI [23]?
A: The TGI was greater than 100 µM.

Q: And the TGI [24]?
A: The TGI was greater than 100 µM.

Q: What about the TGI [25] of the same compound?
A: The TGI was greater than 92 µM.

Q: And the TGI [26]?
A: The TGI was greater than 100 µM.

Q: And the TGI [27]?
A: The TGI was greater than 71.7 µM.

Q: And the TGI [53]?
A: The TGI was greater than 100 µM.

Q: What about the TGI [54] of the same compound?
A: Its TGI is greater than 100 µM.

Q: And the TGI [55]?
A: Its TGI is 0.533 µM.

Q: What about the TGI [28] of the same compound?
A: The TGI was greater than 100 µM.

Q: What about the TGI [29] of the same compound?
A: Its TGI is greater than 100 µM.

Q: What about the TGI [30] of the same compound?
A: The TGI was greater than 61 µM.

Q: And the TGI [31]?
A: Its TGI is 45.4 µM.

Q: What about the TGI [56] of the same compound?
A: Its TGI is greater than 73.4 µM.

Q: And the TGI [57]?
A: The TGI was greater than 100 µM.

Q: And the TGI [58]?
A: The TGI was greater than 100 µM.

Q: What about the TGI [32] of the same compound?
A: The TGI was greater than 100 µM.

Q: What about the TGI [33] of the same compound?
A: The TGI was greater than 100 µM.

Q: What about the TGI [34] of the same compound?
A: The TGI was greater than 100 µM.

Q: And the TGI [35]?
A: The TGI was greater than 100 µM.

Q: What about the TGI [36] of the same compound?
A: The TGI was greater than 100 µM.

Q: And the TGI [37]?
A: Its TGI is greater than 100 µM.

Q: What about the TGI [38] of the same compound?
A: Its TGI is greater than 100 µM.

Q: What about the TGI [39] of the same compound?
A: The TGI was greater than 100 µM.

Q: And the TGI [40]?
A: The TGI was greater than 75.2 µM.

Q: What about the TGI [41] of the same compound?
A: The TGI was greater than 100 µM.

Q: What about the TGI [42] of the same compound?
A: The TGI was greater than 100 µM.

Q: And the TGI [43]?
A: Its TGI is greater than 100 µM.

Q: What about the TGI [44] of the same compound?
A: Its TGI is greater than 69.6 µM.

Q: And the TGI [45]?
A: Its TGI is greater than 100 µM.

— PubChem BioAssay (NCI)
